Results published in PubChem BioAssay (NCI).
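All cell lines were grown in 96-well plates and treated with compound for 48 hours. TGI: concentration producing complete growth inhibition.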

What was measured:
Test in all cases: growth of human tumour cells (NCI), 48 h
[1] = system: 786-0 renal
[2] = system: A549 NSCLC
[3] = system: ACHN renal
[4] = system: HCT-116 colon
[5] = system: HS 578T breast
[6] = system: OVCAR-3 ovarian
[7] = system: OVCAR-5 ovarian
[8] = system: SF-295 CNS
[9] = system: SK-MEL-2 melanoma
[10] = system: SK-MEL-5 melanoma
[11] = system: SK-OV-3 ovarian
[12] = system: IGROV1 ovarian
[13] = system: MOLT-4 leukemia
[14] = system: NCI-H522 lung
[15] = system: BT-549 breast

Structure (SMILES)	TGI [1]	TGI [2]	TGI [3]	TGI [4]	TGI [5]	TGI [6]	TGI [7]	TGI [8]	TGI [9]	TGI [10]	TGI [11]	TGI [12]	TGI [13]	TGI [14]	TGI [15]
CC1(C)[C@@H](Cn2cc(I)c(=O)[nH]c2=O)CC[C@@]1(C)CO	> 100 µM	> 100 µM	> 100 µM	> 100 µM	> 100 µM	> 100 µM	> 100 µM	> 100 µM	> 100 µM	> 100 µM	> 100 µM	–	–	–	–
COc1cccc(-c2cc(=O)c3cc(N4CCCCC4)ccc3[nH]2)c1	> 48 µM	–	> 96.6 µM	–	> 86.1 µM	13.3 µM	> 100 µM	–	> 100 µM	9.55 µM	> 100 µM	> 100 µM	> 100 µM	> 21 µM	–
CNC(=O)NCCCC(NC(C)=O)C(=O)NCc1ccccc1 (configuration not stated)	> 100 µM	> 100 µM	> 100 µM	> 100 µM	–	> 100 µM	> 100 µM	> 100 µM	> 100 µM	> 100 µM	> 100 µM	> 100 µM	> 100 µM	> 100 µM	–
C/C(=N\NC(N)=S)c1ccc2c(c1)Sc1ccccc1O2	25.7 µM	13.5 µM	43.7 µM	24.3 µM	> 100 µM	4.52 µM	> 100 µM	> 100 µM	6.99 µM	6.83 µM	39.5 µM	–	> 100 µM	–	–
COC(=O)c1cccc(C)c1C1CN=NC12Cc1cc(C)cc(C)c1C2=O (configuration not stated)	> 100 µM	> 100 µM	> 100 µM	66.5 µM	> 100 µM	> 100 µM	> 100 µM	–	–	77 µM	–	> 100 µM	74.9 µM	> 100 µM	–
C=CCNC(=S)N/C=C(\C#N)C(N)=O	> 100 µM	> 100 µM	> 100 µM	> 100 µM	> 100 µM	> 100 µM	> 100 µM	> 100 µM	> 100 µM	> 100 µM	> 100 µM	> 100 µM	> 100 µM	> 100 µM	–
COc1cc(C2C(Cl)C(=O)N2n2cnc3ccccc3c2=O)ccc1O (configuration not stated)	> 100 µM	> 100 µM	> 100 µM	> 100 µM	–	> 100 µM	> 100 µM	> 100 µM	> 100 µM	> 100 µM	> 100 µM	> 100 µM	> 100 µM	> 100 µM	–
CON(C)C(=O)C(C)N(Cc1ccccc1)Cc1ccccc1 (configuration not stated)	> 100 µM	> 100 µM	> 100 µM	> 100 µM	> 100 µM	> 100 µM	> 100 µM	> 100 µM	–	> 100 µM	> 100 µM	> 100 µM	> 100 µM	–	> 100 µM
COC(=O)CC(C)(NS(=O)c1ccc(C)cc1)c1ccccc1 (configuration not stated)	> 100 µM	> 100 µM	> 100 µM	> 100 µM	> 100 µM	> 100 µM	> 100 µM	> 100 µM	> 100 µM	> 100 µM	> 100 µM	> 100 µM	> 100 µM	> 100 µM	–
O=C1/C(=C/c2ccco2)NC(=S)N1CN1CCCCC1	> 100 µM	> 100 µM	> 100 µM	> 100 µM	> 100 µM	> 100 µM	> 100 µM	> 100 µM	> 100 µM	> 100 µM	> 100 µM	> 100 µM	> 100 µM	> 100 µM	–
N#Cc1cccc(-n2[nH]c(=O)ccc2=O)c1	> 100 µM	> 100 µM	> 100 µM	> 100 µM	–	> 100 µM	> 100 µM	> 100 µM	> 100 µM	> 100 µM	–	> 100 µM	> 100 µM	> 100 µM	–
CCCC/C=C/C=C/C=C/CCCCCCCC(=O)OCC(COC(=O)CCCCCCC/C=C/C1C=CC(CCCC)C(C(=O)O)C1C(=O)O)OC(=O)CCCCCCC/C=C/C=C/C=C/CCCC (configuration not stated) (tested in a mixture with another compound)	31.7 µM	37.1 µM	33.2 µM	30.7 µM	–	38.3 µM	43.1 µM	35.8 µM	29.5 µM	31.1 µM	44.6 µM	37.8 µM	47.2 µM	–	–
Nc1nc(Cl)cc(OCC2(CO)CC=CC2)n1	> 100 µM	> 100 µM	> 100 µM	> 100 µM	> 100 µM	> 100 µM	> 100 µM	> 100 µM	–	> 100 µM	–	> 100 µM	> 100 µM	> 100 µM	–
NC(Cc1ccccc1)C(=O)NC(Cc1ccccc1)NC(=O)C(Cc1c[nH]c2ccccc12)C(=O)O (configuration not stated)	> 100 µM	> 100 µM	> 100 µM	> 100 µM	> 100 µM	> 100 µM	> 100 µM	> 100 µM	> 100 µM	> 100 µM	> 100 µM	> 100 µM	–	> 100 µM	–
CCN(CC)CCCNC(=O)c1cc(-c2nccn2C)nc2ccccc12	> 100 µM	> 100 µM	> 100 µM	> 100 µM	–	–	> 100 µM	–	> 100 µM	> 100 µM	–	> 100 µM	> 100 µM	> 100 µM	> 100 µM
COc1cc2c(cc1O)[C@H](C)C(c1ccc(OC)c(OC)c1)O2 (some centres not stated)	23.8 µM	> 100 µM	22.4 µM	15.1 µM	–	16.6 µM	> 100 µM	> 100 µM	12.8 µM	20.8 µM	> 100 µM	4.36 µM	23.9 µM	30.8 µM	–
O=c1[nH]c2cc(Cl)ccc2nc1/C(=N\Nc1ccccc1)C(O)c1ccc(Cl)c(Cl)c1 (configuration not stated)	> 100 µM	> 100 µM	> 100 µM	> 100 µM	–	> 100 µM	> 100 µM	> 100 µM	> 100 µM	> 100 µM	> 100 µM	> 100 µM	> 100 µM	> 100 µM	–
